The test concerns the target Protein Kinase A (PKA) (Homo sapiens, UniProt P17612). The experiment in a line: pulsed field mobility shift assay screening for Protein Kinase A (PKA) inhibitors. The test is classed as biochemical. The settings on record: from dose response curve (FIG. 10), 7 H9 concentrations 0.15-30.75 μM; pulsed field and standard (constant field) mobility shift assays predict same Ki; read-out: Ki value for the inhibitor. As to the method:
In an exemplary embodiment, the pulsed field mobility shift assay was used for screening for Protein Kinase A (PKA) inhibitors. Samples were drawn from a 96 well plate into a microfluidic device through a capillary. The plate contained 7 different concentration samples (0.15 μM, 0.32 μM, 0.63 μM, 1.54 μM, 2.52 μM, 5.05 μM, and 30.75 μM) of H9 at randomly chosen wells. Except for a single well containing the 30.75 μM concentration of H9, two wells contained each of the other six concentrations of H9. The last column of each row of the well plate contained a marker used to indicate the end of row. In this embodiment, the marker was 1 μM of 100% converted PKA product. Once in the reaction channel of the microfluidic device, the pressure driven velocity of the sample was set at 0.028 cm/s and the applied electric field was set to 997 V/cm. […] Each sample was sipped for 30 seconds separated by a 30 second buffer sip. […] From the data in FIGS. 8 and 9, the parameter C1/C0, which is the ratio of the fluorescence measured while the electric field is on to the fluorescence measured while the field is off, was determined for each of the seven H9 concentrations. That parameter was also measured in the absence of H9 to provide a baseline value. The deviation from the baseline value ΔC/C=((C1/C0)|H9sample−(C1/C0)|buffer), was evaluated for each H9 sample. […]

What is called Ki is the dissociation constant of the complex between target and ligand, obtained from inhibition or displacement. On to `NCCNS(=O)(=O)c1cccc2cnccc12` [H9], for which the inhibition constant (Ki) is 3.5 µM.

The values above are taken from patent publication US9683994B2, “High throughput mobility shift” (Caliper Life Sciences, Inc., priority 2002, dated 2017).
